The values below come from patent publication US7632814B2, “HYD1 peptides as anti-cancer agents” (University of South Florida, priority 2006, dated 2009).

Where no end group is shown, it is not given here. [ ]: non-standard residue; d: D form.

Holding throughout (type): cell-based
Assay [1] has as its system 8226 cells. The assay is described as follows: Detection of apoptosis, annexin V staining and FACS, suspension culture. Conditions: 24 hours, annexin V. As for the experimental part: (§1) FIG. 17 is a graph showing that HYD1 induces apoptosis as a single agent in 8226 and H929 cells cultured in suspension. 8226 and H929 cells were either treated with varying concentrations of HYD1 or vehicle control (equal volume sterile double distilled water) for 24 hours and apoptotic cells were detected by FACS analysis of annexin V positive cells. HYD1 specific apoptosis equals cell death due to peptide minus any apoptosis detected in control cells.
Detection of Apoptosis. A flow cytometric assay measuring Annexin V/PI staining was used to measure apoptotic cells following 24 hours of peptide exposure as previously described (Damiano J S et al. Blood, 1999; 93:1658-1667). The assay was performed in triplicate and 3 independent experiments were performed. Caspase 3 and 8 activity was measured at 6 and 24 hrs post peptide treatment per manufactures' instructions (BD Biosciences, San Jose, Calif.). The caspase assays were performed in triplicate and repeated twice.
(§2) Myeloma cells were plated at a density of 400,000 cells per ml in a 24 well plate. Cells were treated with the indicated dose of the peptide for 24 hours. Following 24 hrs of peptide exposure, apoptotic cells were detected using Annexin V staining and FACS analysis. Ten thousand events were analyzed by flow cytometry (Becton Dickinson, San Jose, Calif.). Experiments were performed in triplicate and repeated twice. Shown is a representative figure.

In assay [2] the test system is prostate tumor cell. In words: Random haptotaxis (cell migration) on laminin 322 (laminin 5). Conditions: scrambled peptide HYDS indicates 100% cell migration. The source says: Defining the minimal region of HYD1 necessary to potentiate drug-induced apoptosis in suspension and adherent cultures is of interest. Below is a study to determine the minimal HYD1 sequence required to block prostate tumor cell migration. Similar studies as those outlined below and using the same peptide sequences will be used to determine the minimal amino acid sequence required for potentiation of drug induced apoptosis.
This response to the peptide is independent of disrupting adhesion to laminin 322 (laminin 5) since the cells were grown on a ligand before treatment with the peptide. […] All other alanine-substitution mutants resulted cell migration, i.e., a loss of peptide activity.
Using the negative control scrambled peptide, HYDS (SEQ ID NO:44), to indicate 100% cell migration, several truncated peptides including, ikmviswkg (SEQ ID NO:22), kmviswkg (SEQ ID NO:39), and kikmviswk (SEQ ID NO:37) were effective at blocking cell migration by approximately 50%.

The test system of assay [3] is H929 cells. In words: Detection of apoptosis, annexin V staining and FACS, suspension culture. To be noted: H929 cells, 200 μM ZVAD-FMK 30 minutes prior, apoptosis at 24 hours, annexin/PI. As for the experimental part:
as §1
200 μM ZVAD-FMK was added to H929 cells for 30 minutes prior to the addition of either 75 μg/ml HYD1S or 15 μM Melphalan. Apoptosis was measured 24 hours after drug treatment by annexin/PI staining and apoptotic cells were detected by FACS analysis. Three independent experiments were performed and shown is a representative experiment.
Detection of Apoptosis. […] Blood, 1999; 93:1658-1667). The assay was performed in triplicate and 3 independent experiments were performed. Caspase 3 and 8 activity was measured at 6 and 24 hrs post peptide treatment per manufactures' instructions (BD Biosciences, San Jose, Calif.). The caspase assays were performed in triplicate and repeated twice.
as §2

The test system of assay [4] is primary myeloma patient specimens. In words: Melphalan-induced cell death in primary myeloma patient specimens, FN-adherent vs suspension. An excerpt: It has been reported that β1-integrin mediated adhesion of 8226 cells and K562 cells to FN blocked cell death induced by the alkylating agent melphalan (Damiano J S, et al. Blood. 1999; 93:1658-1667; Hazlehurst L A, et al. Cancer Res. 2003; 63:7900-7906). In order to determine whether the CAM-DR phenotype is a potential mechanism of clinical de novo drug resistance, melphalan-induced cell death was recently measured in primary myeloma patient specimens (See FIG. 2). Plasma cells were identified by either positive Kappa or Lambda staining, and apoptotic myeloma cells were identified by the Tunnel assay. 9 out of 10 patient specimens were protected from melphalan induced cell death when adherent to FN compared to suspension cultures.

Assay [5] deals with MM1.S cells. The source says:
FIGS. 4A-4E are a series of graphs showing that the BMS model protects myeloma MM1.S cells from melphalan (FIG. 4A), mitoxantrone (FIG. 4B), and dexamethasone (FIGS. 4C-4E) induced cell death. SF+A model confers the highest levels of resistance to cell death induced by either mitoxantrone or melphalan.
FIGS. 10A-10E are a series of graphs showing that the BMS model protects MM1.S cells from melphalan (FIG. 10A), mitoxantrone (FIG. 10B), dexamethasone (FIGS. 10C and 10D), and velcade (FIG. 10E) induced cell death.
The CAM-DR phenotype is tested by removing unadhered cells before the addition of drug. […] For this reason, the inventors chose to test for the reversal of drug resistance in adherent cells by using a bone marrow stroma (BMS) model (HS-5 cell line). In the BMS model of drug resistance, cell-cell adhesion is mediated by multiple adhesion moieties and thus the addition of a β1 blocking antibody is not sufficient to block tumor cell adhesion to the BMS cell line. The BMS model system is described in FIGS. 3A-D. These models have facilitated the availability of four discrete hematopoietic tumor populations. The first tumor population (FIG. 3A) is maintained in a traditional suspension culture in RPMI media containing 10% FBS (RM). Conditioned media is prepared by adding fresh RPMI media containing 10% FBS to HS-5 cells which are 75% confluent. After three hours, the media is then collected, centrifuged and stored at −70 for up to one month. This tumor cell culture condition is referred to as CM (FIG. 3B). The third tumor cell population consists of placing HS-5 cells in the bottom chamber and tumor cell in a top chamber that is separated by a membrane allowing for diffusion of soluble factors (see FIG. 3C). This condition is distinct from CM because it considers dynamic soluble interactions between the tumor cell and BMS cells (see FIG. 3D). […] Regardless of the cytotoxic agent used, the levels of drug resistance are greatest for myeloma cells which are adherent to the BMS. […]

Assay [6] relates to ERK. The assay is described as follows: Activation of ERK signaling. To be noted: for activation of ERK: 10 minutes post-treatment. The protocol:
HYD1, when introduced as a soluble ligand, completely blocks random hapotaxis on laminin 322 and enhanced cellular signals are coupled with the loss of cell motility. […] Using this endpoint as an indicator of HYD1 bioactivity, the truncated and alanine-substituted variants of HYD1 were tested for their ability to activate ERK. Activation of ERK at 10 minutes post-treatment was conserved with alanine-substitution only at the N-terminal lysine and C-terminal glycine (FIG. 16A-1). […] Taken together (FIG. 16C-2), the results (FIGS. 16A-1, 16A-2, 16B, 16C-1) indicate that activation of ERK signaling required ikmviswxx (SEQ ID NO:48).

With “kikmviswk ([dK][dI][dK][dM][dV][dI][dS][dW][dK]) [HYD1-g, C-terminus glycine deleted]”, the “potency in inducing 8226 cell death compared to HYD1” value in assay [1] is recorded as “increased potency”; in assay [1] (listed as kikmviswk), “greater potency”. Also, the blocking cell migration result in assay [2] is given as “approximately 50%”.
Consider `N[C@@H](Cc1ccc(N(CCCl)CCCl)cc1)C(=O)O` [melphalan], for which the “protection from induced cell death by pan caspase inhibitor ZVAD-FMK” value in assay [3] is “blocked the majority”. Moreover, the “mean percent apoptosis of plasma cells adhered to FN” value in assay [4] (200 μM melphalan, bone marrow aspirates, adhered to FN prior to treatment) worked out at 27.7%. The “mean percent apoptosis of plasma cells in suspension cultures” value in assay [4] (200 μM melphalan, suspension cultures) is 55.6%. Moreover, in assay [4] (compared to suspension cultures, ten patients), the “patient specimens protected from melphalan induced cell death when adherent to FN” value is listed as 9 out of 10. Further, the “resistance to drug induced cell death conferred by HS-5 stromal layer in the BMS model” value (“resistance” below) in assay [5] is “sufficient to confer resistance”.
iswkg (ISWKG; HYD1 fragment): in assay [6], the “activation of ERK” value is “partial activation of ERK”.
As for `CC(C)C[C@H](NC(=O)[C@H](Cc1ccccc1)NC(=O)c1cnccn1)B(O)O` [velcade], in assay [5], the “resistance” value is listed as “sufficient to confer resistance”.
`O=C1c2c(O)ccc(O)c2C(=O)c2c(NCCNCCO)ccc(NCCNCCO)c21` [mitoxantrone]: the “resistance” value in assay [5] is recorded as “sufficient to confer resistance”.
On to ikmviswkg (IKMVISWKG; HYD1 fragment), for which the blocking cell migration entry in assay [2] was “approximately 50%”.
As to kikmv (KIKMV; HYD1 fragment), in assay [6], the “ERK signal of N-terminal region compared with C-terminal region” value is “stronger signal than iswkg” and the “activation of ERK” value is reported as “partial activation of ERK”.
On to kmviswkg (KMVISWKG; HYD1 fragment), for which the blocking cell migration entry in assay [2] is reported as “approximately 50%”.
